Test results taken from ChEMBL document CHEMBL1201862, “PubChem BioAssay data set” (2004).
Calls of active or inactive are those of the source.

Assays:
HeLa = experiment: Cytotoxicity counterscreen assay for transcriptional activators of heat shock protein 70 (Hsp70). [Related pubchem assays: 1203, 1252 ]; format: functional; settings: Homo sapiens
[1] = inhibitors of intracellular T. cruzi replication, confirmation, NIH3T3 host cells, beta-gal luminescence (AID 2044); format: functional, cell-based;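 further: intracellular parasites grown in NIH/3T3 mouse fibroblasts as host cells; luminescent beta-galactosidase reporter signal from transgenic T. cruzi replicating inside host cells; inhibitors lower the luminescence signal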
[2] = cytotoxicity toward NIH3T3 fibroblasts, dose response, counter-screen, cell-based, ATP luminescence, mouse fibroblasts (AID 2010); format: functional;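 further: cells exposed to compound for about 90 hours before reading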
[3] = biological target: T1, Sphingosine 1-phosphate receptor 4 (Homo sapiens, UniProt O95977); experiment: Fluorescence dose response cell-based high throughput screening assay for antagonists of the Sphingosine 1-Phosphate Receptor 4 (S1P4). [Related pubchem assays: 1524 (Confirmation in triplicates.), 1510 (Primary screen.)]; format: functional
T1 sequence (O95977 whole entry): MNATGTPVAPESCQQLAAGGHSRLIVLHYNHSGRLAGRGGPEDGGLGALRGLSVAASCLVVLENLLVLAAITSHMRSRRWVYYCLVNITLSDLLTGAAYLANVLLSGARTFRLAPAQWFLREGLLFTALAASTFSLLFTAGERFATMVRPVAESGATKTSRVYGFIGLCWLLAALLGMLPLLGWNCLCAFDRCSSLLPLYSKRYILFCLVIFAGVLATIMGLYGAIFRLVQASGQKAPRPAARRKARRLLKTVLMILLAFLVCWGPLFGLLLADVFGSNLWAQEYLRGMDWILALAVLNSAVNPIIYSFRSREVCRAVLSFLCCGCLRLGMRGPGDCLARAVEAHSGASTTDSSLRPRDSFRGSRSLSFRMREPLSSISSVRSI

[4] = biological target: Sphingosine 1-phosphate receptor 1 (Homo sapiens, UniProt P21453); format: functional;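 further: Tango beta-arrestin reporter U2OS cells stimulated with S1P near its EC80; inhibitor potency meaning antagonism of receptor activation by the natural agonist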
Sphingosine 1-phosphate receptor 1, sequence (P21453 whole entry): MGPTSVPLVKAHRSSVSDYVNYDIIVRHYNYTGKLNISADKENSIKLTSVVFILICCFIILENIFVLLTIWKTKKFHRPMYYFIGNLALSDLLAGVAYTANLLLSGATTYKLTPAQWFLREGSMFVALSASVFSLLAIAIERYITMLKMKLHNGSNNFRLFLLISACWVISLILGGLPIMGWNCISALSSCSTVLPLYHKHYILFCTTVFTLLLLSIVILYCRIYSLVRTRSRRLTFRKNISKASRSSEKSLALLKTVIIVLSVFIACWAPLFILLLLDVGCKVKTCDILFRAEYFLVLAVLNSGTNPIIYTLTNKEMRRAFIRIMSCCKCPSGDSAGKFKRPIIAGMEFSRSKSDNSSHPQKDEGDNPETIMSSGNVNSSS

[5] = THP-1 cell cytotoxicity, dose response, cytotoxicity control for non-replicating M. tuberculosis project (AID 489025); format: functional
[6] = HepG2 cell cytotoxicity, dose response, cytotoxicity control for non-replicating M. tuberculosis project (AID 489018); format: functional; settings: Mycobacterium tuberculosis
[7] = Vero E6 cell cytotoxicity, dose response, cytotoxicity control for non-replicating M. tuberculosis project, secondary assay (AID 492998); format: functional, VeroE6; settings: Vero C1008
cells = format: functional
CHO = experiment: cytotoxicity in TLR9-MyD88 CHO cells, dose response, cytotoxicity control for TLR9-MyD88 binding inhibitor project, cell-based, luminescence (AID 588339); format: functional, hamster; settings: Cricetulus griseus;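 further: CHO cells stably coexpressing TLR9 and MyD88 fusions from primary screen; compound exposure lasted 48 hours before viability readout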
[8] = biological target: T2, Replicative DNA helicase DnaB (Mycobacterium tuberculosis, UniProt P9WMR3); experiment: DnaB intein splicing inhibitors, dose response, biochemical, cell-free fluorescence (AID 449749); format: functional
T2 sequence (P9WMR3 whole entry): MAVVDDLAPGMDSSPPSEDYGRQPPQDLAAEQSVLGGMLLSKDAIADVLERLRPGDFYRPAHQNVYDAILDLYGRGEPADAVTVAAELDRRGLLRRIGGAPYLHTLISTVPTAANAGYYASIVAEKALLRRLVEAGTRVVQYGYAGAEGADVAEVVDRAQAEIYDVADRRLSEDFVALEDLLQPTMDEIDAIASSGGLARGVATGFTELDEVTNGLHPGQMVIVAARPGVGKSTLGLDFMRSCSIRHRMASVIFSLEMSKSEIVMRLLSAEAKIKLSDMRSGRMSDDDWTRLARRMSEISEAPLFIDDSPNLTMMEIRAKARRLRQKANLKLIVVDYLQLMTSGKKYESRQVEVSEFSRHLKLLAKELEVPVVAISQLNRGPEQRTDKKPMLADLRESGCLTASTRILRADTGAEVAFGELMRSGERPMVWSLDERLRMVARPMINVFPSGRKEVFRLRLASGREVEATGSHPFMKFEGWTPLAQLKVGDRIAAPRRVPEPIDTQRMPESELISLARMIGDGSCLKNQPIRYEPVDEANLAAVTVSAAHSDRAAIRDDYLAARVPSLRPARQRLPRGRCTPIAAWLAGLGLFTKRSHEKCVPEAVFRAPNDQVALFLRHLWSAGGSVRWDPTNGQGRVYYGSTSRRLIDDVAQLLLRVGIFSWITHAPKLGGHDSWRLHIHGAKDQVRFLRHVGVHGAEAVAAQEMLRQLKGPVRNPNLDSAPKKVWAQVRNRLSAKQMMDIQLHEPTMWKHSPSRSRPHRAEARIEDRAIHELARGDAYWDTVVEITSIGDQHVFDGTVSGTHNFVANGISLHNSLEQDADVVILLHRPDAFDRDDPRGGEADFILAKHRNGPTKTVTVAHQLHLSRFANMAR

[9] = biological target: Heat shock protein HSP 90-alpha (Homo sapiens, UniProt P07900); format: functional, organism-based
Protein RecA = biological target: T3, Protein RecA (Mycobacterium tuberculosis, UniProt P9WHJ3); experiment: Fluorescence Cell-Free Homogeneous Dose Retest to Identify Inhibitors of RecA-Intein Splicing Activity. [Related pubchem assays (depositor defined):AID2097, AID2223, AID489010, AID492950]; format: functional
T3 sequence (P9WHJ3 whole entry): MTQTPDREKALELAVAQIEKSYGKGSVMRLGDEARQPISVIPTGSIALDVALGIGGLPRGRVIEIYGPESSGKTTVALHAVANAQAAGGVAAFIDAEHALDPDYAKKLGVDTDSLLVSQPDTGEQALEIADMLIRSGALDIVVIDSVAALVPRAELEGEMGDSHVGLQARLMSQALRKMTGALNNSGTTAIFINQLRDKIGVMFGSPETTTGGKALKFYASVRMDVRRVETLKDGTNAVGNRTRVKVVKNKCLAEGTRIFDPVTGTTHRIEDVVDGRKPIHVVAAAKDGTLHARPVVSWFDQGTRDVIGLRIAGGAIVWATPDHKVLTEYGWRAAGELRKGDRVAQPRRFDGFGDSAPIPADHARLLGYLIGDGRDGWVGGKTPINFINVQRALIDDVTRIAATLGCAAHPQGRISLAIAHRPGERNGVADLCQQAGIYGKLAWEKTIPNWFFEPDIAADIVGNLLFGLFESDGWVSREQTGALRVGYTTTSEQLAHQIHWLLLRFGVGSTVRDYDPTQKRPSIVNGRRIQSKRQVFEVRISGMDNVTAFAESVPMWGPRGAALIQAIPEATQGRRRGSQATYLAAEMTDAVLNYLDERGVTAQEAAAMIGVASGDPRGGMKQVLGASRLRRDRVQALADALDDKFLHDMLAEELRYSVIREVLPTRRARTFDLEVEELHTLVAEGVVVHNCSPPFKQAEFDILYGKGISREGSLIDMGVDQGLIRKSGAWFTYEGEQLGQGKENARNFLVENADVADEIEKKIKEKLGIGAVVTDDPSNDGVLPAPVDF

Beta Lactamase = Beta Lactamase (Pseudomonas aeruginosa, UniProt Q932Y6); experiment: beta-lactamase reporter inhibitor potency, dose response, artefact control for TLR9-MyD88 binding inhibitor project, BLA reporter cells, FRET fluorescence (AID 588341); format: cell-based;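 further: cell based assay in CHO-K1 cells stably expressing beta-lactamase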
Beta Lactamase, sequence (Q932Y6 whole entry): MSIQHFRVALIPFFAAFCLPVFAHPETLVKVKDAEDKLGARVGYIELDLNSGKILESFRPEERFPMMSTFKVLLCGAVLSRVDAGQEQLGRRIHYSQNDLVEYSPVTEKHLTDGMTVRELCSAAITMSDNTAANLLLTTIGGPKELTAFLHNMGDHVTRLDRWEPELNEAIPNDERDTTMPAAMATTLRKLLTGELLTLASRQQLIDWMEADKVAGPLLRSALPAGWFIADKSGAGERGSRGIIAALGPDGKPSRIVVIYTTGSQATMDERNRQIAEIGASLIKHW

INS1 = experiment: beta cell apoptosis inhibitors, cytokine rescue, dose response, luminescence, retest (AID 449756); format: functional, cell-based; settings: Rattus norvegicus;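 further: cell death triggered by IL-1 beta plus TNF-alpha plus IFN-gamma mixture; protective hits raise ATP signal compared with cytokine alone wells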
HEK293 = experiment: Fluorescence-based counterscreen for potentiators or agonists of NPY-Y2: cell-based high-throughput dose response assay to identify inhibitors of cyclic nucleotide gated ion channel (CNGC) activity. In this assay, the parental HEK293 cell line transfected with a cyclic-nucleotide gated ion channel (CNGC)-based cAMP sensor is used to measure inhibition of isoproterenol-induced CNGC activity by test compound.; format: functional; settings: Homo sapiens;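 further: stimulus is 1 µM isoproterenol at EC100 plus PDE inhibitor Ro 20-1724 at 25 µM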
[10] = biological target: Neuropeptide Y receptor type 2 (Homo sapiens, UniProt P49146); experiment: Fluorescence-based cell-based high-throughput dose response assay for agonists of NPY-Y2. [Related pubchem assays: 1703 (Screening assay (CNGC inhibitors).), 1359 (Screening assay (NPY-Y2 potentiators or agonists).), 1304 (Screening assay (NPY-Y1 potentiators or agonists).), 1710 (Screening assay (NPY-Y2 agonists).), 1791 (Summary AID.)]; format: functional
Neuropeptide Y receptor type 2, sequence (P49146 whole entry): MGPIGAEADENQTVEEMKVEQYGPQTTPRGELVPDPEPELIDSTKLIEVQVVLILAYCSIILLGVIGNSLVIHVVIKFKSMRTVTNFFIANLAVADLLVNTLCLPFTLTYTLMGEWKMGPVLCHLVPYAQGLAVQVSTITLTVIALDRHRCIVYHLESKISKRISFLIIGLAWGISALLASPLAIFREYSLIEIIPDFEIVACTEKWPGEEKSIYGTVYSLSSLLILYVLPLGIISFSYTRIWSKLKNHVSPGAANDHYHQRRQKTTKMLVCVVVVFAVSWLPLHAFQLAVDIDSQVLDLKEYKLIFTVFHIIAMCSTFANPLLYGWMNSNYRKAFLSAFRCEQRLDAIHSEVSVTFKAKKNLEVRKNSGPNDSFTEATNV

Galanin receptor type 2 = Galanin receptor type 2 (Homo sapiens, UniProt O43603); experiment: Dose Response cell-based high-throughput screening assay to identify antagonists of galanin receptor 2 (GALR2). [Related pubchem assays: 828, 866 ]; format: functional
Galanin receptor type 2, sequence (O43603 whole entry): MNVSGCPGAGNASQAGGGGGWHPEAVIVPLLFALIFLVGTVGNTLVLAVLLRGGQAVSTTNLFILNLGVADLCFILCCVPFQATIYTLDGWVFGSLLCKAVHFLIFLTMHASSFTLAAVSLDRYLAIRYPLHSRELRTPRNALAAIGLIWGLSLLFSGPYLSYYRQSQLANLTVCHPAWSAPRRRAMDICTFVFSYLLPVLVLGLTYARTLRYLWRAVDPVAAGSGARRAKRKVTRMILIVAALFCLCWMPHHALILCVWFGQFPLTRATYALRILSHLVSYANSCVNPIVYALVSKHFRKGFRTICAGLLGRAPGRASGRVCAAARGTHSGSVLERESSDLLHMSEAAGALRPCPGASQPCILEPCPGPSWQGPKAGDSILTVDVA

[11] = biological target: Neuropeptide Y receptor type 1 (Homo sapiens, UniProt P25929); experiment: Fluorescence-based counterscreen for agonists of NPY-Y2: cell-based high-throughput dose response assay for agonists of NPY-Y1.; format: functional
Neuropeptide Y receptor type 1, sequence (P25929 whole entry): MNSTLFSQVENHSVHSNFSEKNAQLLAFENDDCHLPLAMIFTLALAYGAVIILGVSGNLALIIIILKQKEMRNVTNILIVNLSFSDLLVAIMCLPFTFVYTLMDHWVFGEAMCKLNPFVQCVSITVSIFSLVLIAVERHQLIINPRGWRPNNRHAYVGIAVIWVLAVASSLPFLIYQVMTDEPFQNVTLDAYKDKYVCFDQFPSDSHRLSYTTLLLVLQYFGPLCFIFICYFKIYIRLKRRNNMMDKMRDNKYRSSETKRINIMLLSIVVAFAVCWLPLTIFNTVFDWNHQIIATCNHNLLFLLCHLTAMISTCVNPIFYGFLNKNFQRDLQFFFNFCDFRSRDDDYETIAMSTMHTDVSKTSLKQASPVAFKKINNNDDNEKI

[12] = miR-122 activators in hepatoma reporter cells, dose response, cell-based, Huh7 psiCHECK-miR122, Renilla luciferase, cherry-picked (AID 651956); format: functional;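 further: huh7 hepatoma cells stably carrying a psiCHECK-2 miR-122 sensor plasmid; renilla luciferase signal reporting endogenous miR-122 activity after 48 h compound exposure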
[13] = off-target signal loss in HeLa-CEM21 co-culture – HeLa F-luc CTL cells, cherry-picked, counter-screen for HIV-1 Env fusion inhibitor project, dose response (AID 652040); format: functional, cell-based;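 further: potency for signal decrease marking cytotoxic or nonspecific inhibition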
[14] = inhibitors of clade B AD8 Env fusion, dose response, cell-based, cherry-pick (AID 652062); format: functional;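 further: luciferase signal from cell-cell fusion driven by HIV-1 clade B AD8 Env; potency is for inhibitors of fusion seen as a drop in luminescence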
[15] = biological target: T4, COUP transcription factor 2 (Homo sapiens, UniProt P24468); experiment: Luminescence-based cell-based high throughput dose response assay to identify inhibitors of COUP-TFII (NR2F2).; format: functional;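 further: HEK293 cells transiently cotransfected with COUP-TFII expression vector and reporter; luciferase reporter luminescence driven by COUP-TFII from the pX2-168 reporter plasmid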
T4 sequence (P24468 whole entry): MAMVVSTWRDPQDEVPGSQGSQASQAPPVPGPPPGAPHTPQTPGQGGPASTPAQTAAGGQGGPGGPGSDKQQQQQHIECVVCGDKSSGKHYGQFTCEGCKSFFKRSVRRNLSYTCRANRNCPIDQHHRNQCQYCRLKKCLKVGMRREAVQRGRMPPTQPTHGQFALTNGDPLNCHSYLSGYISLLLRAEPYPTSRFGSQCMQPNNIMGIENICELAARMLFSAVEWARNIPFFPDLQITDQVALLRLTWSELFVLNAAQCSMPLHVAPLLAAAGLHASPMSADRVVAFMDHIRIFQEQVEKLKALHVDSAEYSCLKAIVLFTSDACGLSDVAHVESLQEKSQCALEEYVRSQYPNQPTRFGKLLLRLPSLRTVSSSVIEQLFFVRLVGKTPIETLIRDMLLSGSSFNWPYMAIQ

[16] = HEK293T cytotoxicity, dose response, cytotoxicity control for miR-122 modulator project, cell-based, inhibitor set, cherry-pick, set 2 (AID 720697); format: functional
[17] = HEK293T cytotoxicity, dose response, cytotoxicity control for miR-122 modulator project, cell-based, activator set, cherry-pick (AID 720690); format: functional;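 further: HEK293T human cells scored for general mammalian cytotoxicity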
[18] = biological target: T5, Calpain-2 catalytic subunit (Sus scrofa, UniProt P43367); experiment: pig calpain II inhibitor potency, dose response, biochemical, fluorogenic peptide substrate (AID 1420); format: functional
T5 sequence (P43367 whole entry): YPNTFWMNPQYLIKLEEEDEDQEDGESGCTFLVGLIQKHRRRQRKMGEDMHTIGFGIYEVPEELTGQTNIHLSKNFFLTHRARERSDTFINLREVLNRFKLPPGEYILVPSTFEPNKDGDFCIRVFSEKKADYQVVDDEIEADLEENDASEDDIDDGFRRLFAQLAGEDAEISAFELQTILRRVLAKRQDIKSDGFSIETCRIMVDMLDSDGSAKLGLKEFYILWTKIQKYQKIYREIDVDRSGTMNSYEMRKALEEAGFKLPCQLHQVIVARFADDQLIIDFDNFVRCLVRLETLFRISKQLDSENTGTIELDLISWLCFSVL

[19] = inhibitors of Bluetongue virus cytopathic effect, confirmation, arbovirus, BSR cells (AID 1250); format: functional;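 further: protection from viral cytopathic effect measured as cell viability by ATP luminescence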

Question: With `O=C(OCn1ncc(Br)c(Br)c1=O)c1ccccc1Cl` as the compound, how does the CC50 (HeLa) read?
Answer: > 1.22 µM (not active)

Question: What about the EC50 [1] of the same compound?
Answer: 2.03 µM (active)

Question: And the EC50 [2]?
Answer: 1.88 µM (active)

Question: And the IC50 [3]?
Answer: 1.75 µM (active)

Question: What about the IC50 [4] of the same compound?
Answer: 15.3 µM (not active)

Question: What about the CC50 [5] of the same compound?
Answer: 5.77 µM (active)

Question: What about the CC50 [6] of the same compound?
Answer: 17.8 µM (active)

Question: And the CC50 [7]?
Answer: 5.45 µM (active)

Question: What about the IC50 (cells) of the same compound?
Answer: 3.24 µM (active)

Question: And the IC50 (CHO)?
Answer: 1.46 µM (active)

Question: And the AC50 [8]?
Answer: 2 µM (active)

Question: What about the AC50 [9] of the same compound?
Answer: 8.37 µM (active)

Question: And the EC50 (Protein RecA)?
Answer: 0.472 µM (active)

Question: And the IC50 (Beta Lactamase)?
Answer: > 49.8 µM (inactive)

Question: And the AC50 (INS1)?
Answer: 4.76 µM (active)

Question: Which results are given for `CC(=O)c1c(C)[nH]c(C(=O)OCCCCN2C(=O)c3ccccc3C2=O)c1C`?
Answer: EC50 (HEK293): > 35.4 µM (not active); EC50 [10]: > 35.4 µM (not active); IC50 (Galanin receptor type 2): > 42 µM (not active); EC50 [11]: > 35.4 µM (not active); AC50 (INS1): 6.57 µM (active); AC50 [12]: 38.4 µM (active); AC50 [13]: > 70 µM (inactive); AC50 [14]: 6.13 µM (active); IC50 [15]: 7.55 µM (active); AC50 [16]: 7.33 µM (active); AC50 [17]: 12.5 µM (active)

Question: For `COc1ccc(C(=O)NCC(C)(C)SCc2c(C)cc(C)cc2C)cc1`, which IC50 [18] is on record?
Answer: > 50 µM (not active)

Question: And the IC50 [19]?
Answer: 24.1 µM (active)
